Measurements: patent publication US4454123A, “O-xylopyranoside series compounds and methods of use” (Seikagaku Kogyo Co. Ltd., priority 1980, dated 1984)
Where two headings read alike, the source gives them in different places.

Experiments:
[1] = system: platelet agglutination caused by thrombin; assay: Inhibitory effect against platelet agglutinating agent thrombin (Test Example 8); type: cell-based, human; design: key: The degree of agglutination was expressed by using marks +, ++, +++, etc.; The degree of agglutination was expressed by using marks +, ++, +++, etc.; The degree of agglutination was expressed by using marks +, ++, +++, etc; conditions: specimen 2 mM, dissolved in 50% ethanol
Procedure: (§1) Inhibitory activities of each compound of this invention against platelet agglutinating agents (ADP, collagen, thrombin, ristocetin and epinephrine)were investigated according to the method using a microscope.
(§2) PRP was prepared by mixing a 3.8% aqueous sodium citrate and a human vein blood at a ratio of 1:9; centrifuging the mixture at 700 r.p.m. for 10 minutes; and then collecting the supernatant.
(§3) The residue remaining after collection of the PRP mentioned above was subjected further to centrifugation at 3000 r.p.m. for 10 minutes and then collected the supernatant to obtain PPP.
(§4) Following solutions were employed for the test.
c. thrombin (0.25 U/ml solution)
(§5) In each well of a Multidish (Nunc Multidish having 24 wells) was placed 0.2 ml of PRP (containing 3.0×10^5 platelet cells/cmm).
(§6) Thereto was added 50 μl of a specimen solution containing 10 mM of the compound according to this invention, and the mixture was stirred at 37° C. for 2 minutes. To the mixture was added 10 μl of each solution of the platelet agglutinating agent mentioned above, and the result was observed by using a microscope 1 minute and then 5 minutes thereafter.
(§7) The degree of agglutination was expressed by using marks +, ++, +++, etc., according to the method by Fukutake et al [Katsuhiro Fukutake, Iwao Yamaguchi: Blood and Blood Vessel, Volume 6, No. 7, pp. 55-60 (1975)].

Sarcoma-180 = assay: Activity against a transplantable cancer, Sarcoma-180 (Test Example 7); type: in vivo, ICR-JCL mice; conditions: 100 mg/kg ip once a day for 10 days; for inhibition in vivo at 100 mg/kg: Mus musculus, Sarcoma-180, ip, 240 h, read-out: I.R. (inhibition ratio, Sarcoma-180 tumor weight)
Procedure: Sarcoma-180 cells (1×10^6 cells) were inoculated subcutaneously into the back skin of each of ICR-JCL mice.
Chemotherapy was given intraperitoneally 24 hrs. after inoculation and performed once a day for 10 days. Each specimen to be administered was prepared by dissolving or suspending 30 mg of each compound according to this invention in 1 ml of a physiological saline or in 1 ml of a 0.2% solution of carboxymethylcellulose in a physiological saline, respectively.
All the solutions and the suspensions thus prepared were injected at a volume of 0.1 ml as a single dose (100 mg/Kg).
The inhibition ratio (%) was calculated according to the following equation: […]
wherein T represents the mean weight of the tumor Sarcoma-180 in a tested group of mice; and C represents the mean weight of the tumor in a control group of mice.

[2] = system: platelet agglutination caused by epinephrine; assay: Inhibitory effect against platelet agglutinating agent epinephrine (Test Example 8); type: cell-based, human; design: key: The degree of agglutination was expressed by using marks +, ++, +++, etc.; The degree of agglutination was expressed by using marks +, ++, +++, etc.; The degree of agglutination was expressed by using marks +, ++, +++, etc; conditions: specimen 2 mM, dissolved in 50% ethanol
Procedure: as §1, §2, §3, §4
e. epinephrine (2 μg/ml solution)
as §5, §6, §7

[3] = system: platelet agglutination caused by ADP; assay: Inhibitory effect against platelet agglutinating agent ADP (Test Example 8); type: cell-based, human; design: key: The degree of agglutination was expressed by using marks +, ++, +++, etc.; The degree of agglutination was expressed by using marks +, ++, +++, etc.; The degree of agglutination was expressed by using marks +, ++, +++, etc; conditions: specimen 2 mM, dissolved in 50% ethanol
Procedure: as §1, §2, §3, §4
a. ADP (2 μM/ml solution)
as §5, §6, §7

[4] = Acute toxicity (LD50) by oral or intraperitoneal administration to ddY mice (Test Example 6); type: in vivo; conditions: mouse, in vivo, 7 days
Procedure: (§8) The acute toxicity of the compound according to this invention was determined by forced oral or intraperitoneal administration thereof to ddY mice.
(§9) To prepare each specimen to be administered, a predetermined amount of each compound shown in Table 5 was dissolved in a physiological saline or suspended in a 0.2% solution of carboxymethylcellulose in a physiological saline. Each specimen was administered orally to a ddY mouse via its stomach tube or injected intraperitoneally.

[5] = system: platelet agglutination caused by collagen; assay: Inhibitory effect against platelet agglutinating agent collagen (Test Example 8); type: cell-based, human; design: key: The degree of agglutination was expressed by using marks +, ++, +++, etc.; The degree of agglutination was expressed by using marks +, ++, +++, etc.; The degree of agglutination was expressed by using marks +, ++, +++, etc; conditions: specimen 2 mM, dissolved in 50% ethanol
Procedure: as §1, §2, §3, §4
b. collagen (0.25 μM/ml solution)
as §5, §6, §7

[6] = system: platelet agglutination caused by ristocetin; assay: Inhibitory effect against platelet agglutinating agent ristocetin (Test Example 8); type: cell-based, human; design: key: The degree of agglutination was expressed by using marks +, ++, +++, etc.; The degree of agglutination was expressed by using marks +, ++, +++, etc.; The degree of agglutination was expressed by using marks +, ++, +++, etc; conditions: specimen 2 mM, dissolved in 50% ethanol
Procedure: as §1, §2, §3, §4
d. ristocetin (1.5 mg/ml solution)
as §5, §6, §7

ddY mice = assay: Acute toxicity (LD50) by oral or intraperitoneal administration to ddY mice (Test Example 6); type: in vivo; conditions: 7 days, 10080 min; for LD50 (ip): intraperitoneal
Procedure: as §8, §9

[7] = ip, intraperitoneal, read-out: LD50 (ip)

| Compound | State of agglutination, 5 min. [1] | inhibition in vivo at 100 mg/kg (Sarcoma-180) | State of agglutination, 5 min. [2] | State of agglutination, 5 min. [3] | LD50 at 168 h [4, 7] | LD50 at 168 h ([4]; po, read-out: LD50 (po)) | State of agglutination, 5 min. [5] | State of agglutination, 5 min. [6] | I.R. (inhibition ratio, Sarcoma-180 tumor weight) (Sarcoma-180) | LD50 (ip) (ddY mice) | LD50 (po) (ddY mice) |
| --- | --- | --- | --- | --- | --- | --- | --- | --- | --- | --- | --- |
| CCCCCCCCCCS[C@@H]1OC[C@@H](O)[C@H](O)[C@H]1O [n-Decyl 1-thio-β-D-xylopyranoside] | + | 40% | + | + | 450 mg/kg | 2500 mg/kg | + | + |  |  |  |
| O=C(O)c1ccc(C[C@@H]2OC[C@@H](O)[C@H](O)[C@H]2O)cc1 [C-para(sodiumoxycarbonyl)benzyl-β-D-xylopyranoside] |  |  |  |  |  |  |  |  | 53.2% | 3000 mg/kg body weight | 9300 mg/kg body weight |
| CCCCCCCCCCCCCCCCCC[C@@H]1OC[C@@H](O)[C@H](O)[C@H]1O [C-n-Stearyl-β-D-xylopyranoside] | + | 54.6% |  | + | 480 mg/kg | 2500 mg/kg | + | + |  |  |  |
| O=C(O)c1ccc(S[C@@H]2OC[C@@H](O)[C@H](O)[C@H]2O)cc1 [Para(sodiumoxycarbonyl)phenyl 1-thio-β-D-xylopyranoside] |  |  |  |  |  |  |  |  | 49.6% | 2600 mg/kg body weight | 7000 mg/kg body weight |
| CCCCCCCCCCCCCCCCCCCC[C@@H]1OC[C@@H](O)[C@H](O)[C@H]1O [C-n-Eicosyl-β-D-xylopyranoside] | + | 44.3% |  | + | 430 mg/kg | 2620 mg/kg | + | + |  |  |  |
| O=C(O)c1ccc(O[C@@H]2OC[C@@H](O)[C@H](O)[C@H]2O)cc1 [Para(sodiumoxycarbonyl)phenyl-β-D-xylopyranoside] |  |  |  |  |  |  |  |  | 39.7% | 2800 mg/kg body weight | 8200 mg/kg body weight |
| CCCCCCCCCCCCCCCCCCCCS[C@@H]1OC[C@@H](O)[C@H](O)[C@H]1O [n-Eicosyl 1-thio-β-D-xylopyranoside] | + | 32.2% |  | + | 400 mg/kg | 2300 mg/kg | + | + |  |  |  |
| CCCCCCCCCCCC[C@@H]1OC[C@@H](O)[C@H](O)[C@H]1O [C-n-Lauryl-β-D-xylopyranoside] | + | 83.4% |  |  | 620 mg/kg | 2800 mg/kg | + | + |  |  |  |
| CCCCCCCCCCCCCCCCS[C@@H]1OC[C@@H](O)[C@H](O)[C@H]1O [n-Cetyl 1-thio-β-D-xylopyranoside] | + | 34.7% |  | + | 425 mg/kg | 2280 mg/kg | + | + |  |  |  |
| CCCCCCCCCCCCS[C@@H]1OC[C@@H](O)[C@H](O)[C@H]1O [n-Lauryl 1-thio-β-D-xylopyranoside] | + | 42.3% |  | + | 407 mg/kg | 2300 mg/kg | + | + |  |  |  |
| CCCCCCCCC[C@@H]1OC[C@@H](O)[C@H](O)[C@H]1O [C-n-Nonyl-β-D-xylopyranoside] | + | 73.1% |  | + | 920 mg/kg | 3000 mg/kg | + | + |  |  |  |
